Values quoted from earlier work as cited in patent publication EP1077694B1, “ARYL NITRONE THERAPEUTICS FOR THE TREATMENT OF INFLAMMATORY BOWEL DISEASE” (Renovis, Inc., priority 1998, dated 1999).

Test system: senescence-accelerated mice

Question: For `CC(C)(C)[N+]([O-])=Cc1ccccc1` [PBN, α-phenyl-t-butyl nitrone], which “increase the life span” value is on record?
Answer: one third
